Experiments:
[1] = Circular dichroism, secondary structure of sCT, sCT-SMCC and sCT-BP; format: physicochemical; conditions: 20 mM acetate buffer pH 5.0, 400 μg/mL sCT or equivalent
Experimental: For a more detailed analysis of the influence of BP coupling on secondary structural confirmation of sCT, the circular dichroism (CD) spectrum of sCT, sCT-SMCC and sCT-BP was measured in the 20 mM acetate buffer pH 5.0. CD spectra were obtained with a ConvCD spectrophotometer instrument. Spectra were acquired over a wavelength range of 190 to 260 nm. The N2 flow rate was set at 5 l/min. The sample cuvette was cleaned with 20 mM Sodium Acetate buffer pH 5, and the spectra of test samples, which comprised of 400 μg/mL of sCT or equivalent the same buffer, were recorded with the corresponding buffer serving as blanks.

[2] = Effect on plasma calcium level in normal rats (SMCC series); format: in vivo, rat; conditions: 20 IU sCT/kg equivalent, subcutaneous
Experimental: (§1) Pharmacodynamic response of sCT analogue was evaluated by analyzing plasma calcium concentration in the rat model. Sprague Dawley female rats weighing 230-260 g (about 6 weeks old) were purchased from Charles River, USA and housed at the University of Alberta Animal Holding Unit. All experimental protocols were approved by the Animals Ethics Committee of the University of Alberta. The rats were divided randomly into five groups of 3 animals each and the pharmacodynamic response was assessed following subcutaneous administration of the sCT or analogue equivalent to 20 IU sCT/kg body weight. Rats were anesthetized using Isoflurane inhalation anesthesia and the 200 μl blood samples were obtained in heparinized Eppendorf microtubes before drug injection. Then 100 μl of sCT or equivalent dose in 20 mM Sodium Acetate buffer pH 5 was sub cu injected and the blood samples were collected 1, 2, 3 and 4 hrs post injection from jugular vein. Blood plasma was obtained by centrifuging the samples at 5000 rpm for 10 min and collecting the supernatant. Plasma calcium level was assayed by QuantiChrom™ Calcium Assay Kit (BioAssay Systems, CA USA) and the plasma phosphate level was assayed by QuantiChrom™ Phosphate Assay Kit (BioAssay Systems, CA USA).

[3] = Effect on plasma phosphate level in normal rats (SMCC series); format: in vivo, rat; conditions: 20 IU sCT/kg equivalent, subcutaneous
Experimental: as §1

[4] = first hour, vs acetate buffer controls

Row | Substance | secondary structure by CD spectrum [1] | percentage of plasma calcium reduction ([2]; 4 hour post dosing) | percentage of plasma calcium reduction [2, 4] | percentage of plasma calcium reduction ([2]; second hour) | percentage of plasma calcium reduction ([2]; third hour) | percentage of plasma phosphate reduction ([3]; 4 hour post dosing) | percentage of plasma phosphate reduction [3, 4] | percentage of plasma phosphate reduction ([3]; second hour)
1 | sCT-BP: sCT-SMCC coupled with Thiol-BP (thiol bisphosphonate); mixture of sCT-2SMCC-1BP to sCT-3SMCC-3BP | strong 6-helical character | 27.36±2.28% | 13.45±1.64% | 12.47±5.09% | 26.62±5.28% | 8.54±5.11% | 7.65±4.73% | 12.47±5.09%
2 | sCT-SMCC: sCT reacted with sulfo-SMCC: mono-, di- and tri-substituted thiol reactive sCT intermediates | increased peak intensity at 222 nm | 28.05±2.08% | 15.27±2.35% | 19.43±2.32% | 24.48±2.83% | 10.4±0.54% | 9.18±1.87% | 12.18±2.03%

Reference: US8772235B2, “Compounds having peptides conjugated to bone targeting moieties and methods of making and using thereof” (The Governors of the University of Alberta, priority 2009, dated 2014)
